Measurements as given in US9777003B2, “Tricyclic heterocycles as bet protein inhibitors” (Incyte Corporation, priority 2013, dated 2017).
Structures can show the parent of a compound that is named as a salt. Where two headings read alike, the source gives them in different places.

What was measured:
KMS.12.BM cells = assay: KMS.12.BM cell viability assay (Cell Titer-GLO, ATP quantitation); assay type: cell-based; conditions: KMS.12.BM human myeloma cells, 3 days, concentration required for 50% cell death, read-out: KMS cellular IC50
Protocol: KMS.12.BM cell line (human myeloma) was purchased from JCRB (Osaka, Japan) and maintained in RPMI with 10% FBS culture medium. To measure the cytotoxic activity of the compounds through ATP quantitation, the KMS.12.BM cells are plated in the RPMI culture medium at 5000 cells/well/per 100 μL into a 96-well polystyrene clear black tissue culture plate (Greiner-bio-one through VWR, NJ), in the presence or absence of a concentration range of test compounds. After 3 days, […] Cell Titer-GLO Luminescent (Promega, Madison, Wis.) cell culture agent is added to each well for 10 minutes at room temperature to stabilize the luminescent signal. This determines the number of viable cells in culture based on quantitation of the ATP present, which signals the presence of metabolically active cells. Luminescence is measured with the Top Count 384 (Packard Bioscience through Perkin Elmer, Boston, Mass.). […] IC50 data for the Examples is presented in Table 4 as determined by Assay B1.

BRD4-BD1 = BRD4-BD1 (Homo sapiens (Human), UniProt O60885); assay: BRD4 AlphaScreen assay, BRD4-BD1; assay type: binding; conditions: biotin-labeled tetra-acetylated histone H4 peptide, 75 min, room temperature, read-out: BRD4 BD-1 enzyme IC50
Summary of the method: (§1)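 Displacement of 50 nM biotinylated tetra-acetylated H4 peptide (H4Ac4) from BRD4-BD1 (3.8 nM) or BRD4-BD2 (20 nM) in HEPES pH 7.4, 100 mM NaCl, CHAPS, BSA; 75 min at room temperature. Streptavidin donor/GSH acceptor beads were added for a further 75 min in the dark; IC50 from percent control activity versus log concentration.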

BRD4-BD2 = BRD4-BD2 (Homo sapiens (Human), UniProt O60885); assay: BRD4 AlphaScreen assay, BRD4-BD2; assay type: binding; conditions: biotin-labeled tetra-acetylated histone H4 peptide, 75 min, room temperature, read-out: BRD4 BD-2 enzyme IC50
Summary of the method: as §1

Row | IC50 (BRD4-BD1) | IC50 (BRD4-BD2) | Structure (SMILES) | IC50 (KMS.12.BM cells) | IC50 (KMS.12.BM cells; 72 h)
1 | – | – | Cc1cc2c(cc(N[C@@H]3CCN(C)[C@H](C)C3)c3nnc(C)n32)n1Cc1ccccc1 (mixture of isomers) [Example 224, 6-Benzyl-N-[(2S,4S)-1,2-dimethylpiperidin-4-yl]-1,7-dimethyl-6H-pyrrolo[2,3-e][1,2,4]triazolo[4,3-a]pyridin-4-amine and 6-Benzyl-N-[(2R,4R)-1,2-dimethylpiperidin-4-yl]-1,7-dimethyl-6H-pyrrolo[2,3-e][1,2,4]triazolo[4,3-a]pyridin-4-amine] | ≤ 1000 nM | –
2 | ≤ 100 nM | ≤ 100 nM | CCCNc1cc2c(cc(C)n2Cc2ccccc2)n2c(C)nnc12 [Example 262, 6-Benzyl-N-propyl-1,7-dimethyl-6H-pyrrolo[2,3-e][1,2,4]triazolo[4,3-a]pyridin-4-amine] | – | –
3 | ≤ 100 nM | ≤ 100 nM | Cc1cc2c(cc(NC(C)C)c3nnc(C)n32)n1Cc1ccccc1 [Example 263, 6-Benzyl-N-isopropyl-1,7-dimethyl-6H-pyrrolo[2,3-e][1,2,4]triazolo[4,3-a]pyridin-4-amine] | – | –
4 | 100 to 1000 nM | 100 to 1000 nM | COc1cc2c(cc(C)n2Cc2ccccc2)n2c(C)nnc12 [Example 264, 6-Benzyl-4-methoxy-1,7-dimethyl-6H-pyrrolo[2,3-e][1,2,4]triazolo[4,3-a]pyridine] | – | –
5 | ≤ 100 nM | ≤ 100 nM | CC(=O)Nc1cc2c(cc(C)n2Cc2ccccc2)n2c(C)nnc12 [Example 266, N-(6-Benzyl-1,7-dimethyl-6H-pyrrolo[2,3-e][1,2,4]triazolo[4,3-a]pyridin-4-yl)acetamide] | – | –
6 | 100 to 1000 nM | ≤ 100 nM | CCCC(=O)Nc1cc2c(cc(C)n2Cc2ccccc2)n2c(C)nnc12 [Example 267, N-(6-Benzyl-1,7-dimethyl-6H-pyrrolo[2,3-e][1,2,4]triazolo[4,3-a]pyridin-4-yl)butyramide] | – | –
7 | ≤ 100 nM | ≤ 100 nM | CCC(=O)Nc1cc2c(cc(C)n2Cc2ccccc2)n2c(C)nnc12 [Example 268, N-(6-Benzyl-1,7-dimethyl-6H-pyrrolo[2,3-e][1,2,4]triazolo[4,3-a]pyridin-4-yl)propionamide] | – | –
8 | ≤ 100 nM | ≤ 100 nM | Cc1cc2c(cc(NC(=O)C3CC3)c3nnc(C)n32)n1Cc1ccccc1 [Example 269, N-(6-Benzyl-1,7-dimethyl-6H-pyrrolo[2,3-e][1,2,4]triazolo[4,3-a]pyridin-4-yl)cyclopropanecarboxamide] | – | –
9 | ≤ 100 nM | ≤ 100 nM | Cc1cc2c(cc(NC(=O)C(C)C)c3nnc(C)n32)n1Cc1ccccc1 [Example 270, N-(6-Benzyl-1,7-dimethyl-6H-pyrrolo[2,3-e][1,2,4]triazolo[4,3-a]pyridin-4-yl)isobutyramide] | – | –
10 | 100 to 1000 nM | ≤ 100 nM | Cc1cc2c(cc(NS(C)(=O)=O)c3nnc(C)n32)n1Cc1ccccc1 [Example 271, N-(6-Benzyl-1,7-dimethyl-6H-pyrrolo[2,3-e][1,2,4]triazolo[4,3-a]pyridin-4-yl)methanesulfonamide] | – | –
11 | ≤ 100 nM | ≤ 100 nM | COC(=O)Nc1cc2c(cc(C)n2Cc2ccccc2)n2c(C)nnc12 [Example 272, Methyl 6-benzyl-1,7-dimethyl-6H-pyrrolo[2,3-e][1,2,4]triazolo[4,3-a]pyridin-4-ylcarbamate] | – | –

Row | Structure (SMILES) | IC50 (BRD4-BD1) | IC50 (BRD4-BD2) | IC50 (KMS.12.BM cells) | IC50 (KMS.12.BM cells; 72 h)
12 | Cc1nnc2ccc3c(cc(-c4cc[nH]n4)n3Cc3cccc(CN4CCC4)c3)n12 [Example 182, 6-[3-(Azetidin-1-ylmethyl)benzyl]-1-methyl-7-(1H-pyrazol-3-yl)-6H-pyrrolo[2,3-e][1,2,4]triazolo[4,3-a]pyridine tris(trifluoroacetate) Salt] | ≤ 100 nM | ≤ 100 nM | – | ≤ 1000 nM
